Experiments:
[1] = biological target: T1, aromatase (Homo sapiens, UniProt P11511); test: Aromatase inhibiting capacity in JEG-3 cells; format: cell-based; conditions: FIG. 1, enterolactone within 1.0 to 10.0 μM
T1 construct: 800 μl cell suspension (1 million cells); endogenous in cells; host or cells: JEG-3 human choriocarcinoma cells
T1 sequence (P11511 1-503): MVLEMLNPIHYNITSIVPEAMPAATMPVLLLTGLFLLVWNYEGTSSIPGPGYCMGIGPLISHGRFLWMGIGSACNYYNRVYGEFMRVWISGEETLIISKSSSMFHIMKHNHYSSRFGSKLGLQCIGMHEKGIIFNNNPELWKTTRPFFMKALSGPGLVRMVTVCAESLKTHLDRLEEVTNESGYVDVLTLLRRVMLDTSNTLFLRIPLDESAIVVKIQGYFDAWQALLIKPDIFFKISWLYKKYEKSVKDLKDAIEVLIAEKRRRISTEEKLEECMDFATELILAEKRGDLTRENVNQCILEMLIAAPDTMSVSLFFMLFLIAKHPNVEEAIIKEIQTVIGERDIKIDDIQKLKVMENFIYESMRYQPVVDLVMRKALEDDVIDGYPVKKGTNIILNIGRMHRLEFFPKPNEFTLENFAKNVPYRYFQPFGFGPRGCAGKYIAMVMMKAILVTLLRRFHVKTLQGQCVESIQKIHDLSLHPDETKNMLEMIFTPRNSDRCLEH
Experimental: The effects of HMR and structurally related lignans (enterolactone, enterodiol and 7-hydroxyenterolactone) were studied on formation of ^3H-17β-estradiol from ^3H-andostenedione in JEG-3 cells, human choriocarcinoma cell line. […] Cells were maintained in DMEM containing 10% fetal calf serum (FCS). The incubation mixture contained 50 μl ^3H-androst-4-ene, 3,17-dione (0.5 nM), 50 μl unlabelled androstenedione (0.5 nM), 100 μl test compounds (10 mM) and 800 μl cell suspension (1 million cells). After the incubation for 4 h, unlabelled carriers (androstenedione, testosterone, 17β-estradiol and estrone) were added. The steroids were extracted twice with 3.0 ml dichloromethane. […] The column system consisted of a guard column followed by a C18 150×3.9 mm ID analytical column (Technopak 10 C18 HPLC Technology; Wellington House, Cheshire, UK). The mobile phase was acetonitrile /water (35/65) and the flow rate was 1.2 ml/min. For in-line detection of the radioactive metabolites, the eluent of the HPCL column was continuously mixed with liquid scintillant and then monitored with in-line radioactivity detector.

[2] = system: uterine growth of immature rats; test: Immature rat uterotropic test; format: in vivo; conditions: 7 days treatment, FIG. 3
Experimental: The estrogenicity HMR was evaluated by the uterotropic assay in immature rats which was performed as described earlier (Jordan et al. 1977), with the exception of treatment time which was 7 days instead of 3 days in the reference study. The treatment time was longer because of the expected weak estrogenicity of the test compound. The treatment of immature rats with an aromatase inhibitor (MPV-2213ad), which prevents biosynthesis of estradiol, was used as a methodological control for non-estrogen-stimulated uterus.

[3] = system: hypoandrogenic Noble strain male rats; test: Antiestrogenic activity in hypoandrogenic (neonatally estrogenized) adult male rats; format: in vivo, rat; conditions: hypoandrogenic animals
Experimental: (§1) Estrogenic (anfiandrogenic) and antiestrogenic effects of HMR were studied in intact and hypoandrogenic Noble strain male rats (age 6-9 month), correspondingly. The chronic hypoandrogenic state with both structural and functional changes in the male reproductive tract was induced by neonatal estrogenization (diethylstilbestrol, 10.0 μg/kg body weight in rape oil s.c. on postnatal days 1-5). These changes are known to be partly reversible by aromatase inhibitor treatment consisting daily dose of MPV-2213 ad 10-30 mg/kg body weight (Streng et al. unpublished observations).
(§2) Twelve of both intact and hypoandrogenic animals were cavaged in daily dosage of HMR 50 mg/kg body weight in rape oil. Another twelve animals from both animal models were cavaged with rape oil only as a placebo treatment. After four-week treatment the animals were sacrificed. The weights of testis and accessory sex glands (ventral prostate, seminal vesicles and coagulating gland) were measured. Serum and testis testosterone and pituitary and serum luteinizing hormone (LH) levels were measured by immunoassays (Haavisto et al. 1993).

[4] = system: MCF-7 cells; test: Estrogenic and antiestrogenic activity in MCF-7 cell proliferation assay; format: cell-based, human; conditions: FIG. 2
Experimental: The MCF-7 cell line (human breast cancer cells) stock cultures were grown in phenol red free RPMI medium supplemented with 5 % FCS, 100 U/ml penicillin and 100 μg/ml streptomycin, 10 μg/ml insulin and 1 nM 17μ-estradiol in T-75 cell culture bottles. The medium was replaced with fresh ones three times per week. The stock cultures were harvested by trypsinization and suspended in 10 ml phenol red free versene solution and centrifuged for 5 min 800 rpm. The cell pellet was carefully resuspended into RPMI medium supplemented with 5% dextran charcoal stripped FCS (dcFCS) and seeded on 6 well plates 50 000 cells/ 3.0 ml medium/ well. On the second day of culture the medium was changed and test compounds were added. To test the estrogenicity of the lignan compounds, they were diluted in ethanol and added to cell cultures in final concentration of […]. In each proliferation assay 1.0 nM 1 7β-estradiol solution in ethanol was used as a positive control for estrogenic response. Equal amounts of ethanol were added to control wells. To test the antiestrogenicity both 17β-estradiol and lignan solutions were added to cell cultures. The cells were cultured for 5 to 7 days in the presence of test compounds, and the medium was changed every second day. Cell proliferation was quantified by counting the released nuclei with Coulter counter.

[5] = system: intact Noble strain male rats; test: Estrogenic (antiandrogenic) activity in intact adult male rats; format: in vivo, rat
Experimental: as §1, §2

[6] = system: DMBA-induced mammary gland tumors; test: Antitumor activity in rat DMBA-induced mammary cancer model; format: in vivo
Experimental: Antitumor activity of HMR in rat mammary cancer was studied as described earlier ([…] et al. 1986). Fifty-day-old female Sprague-Dawley rats were given 12.0 mg DMBA (dimethylbentz[a]anthracene) by […]. After approximately 6 weeks palpable tumors could be detected, whereafter the width (w) and the length (1) of the tumors were measured once a week to determine the tumor volumes according to a formula V=(πw^21)/12. The rats were also weighed once a week. The rats were allocated in 3 different groups so that the total number of tumors in the beginning of the experiment was similar in each group: (1) Control group 8 animals, (2) HMR 3.0 mg/kg 7 animals, and (3) HMR 15.0 mg/kg 7 animals, one of which had to be killed before the end of the experiment. HMR was given per os starting 9 weeks after the DMBA-induction, i.e. 3 weeks after palpable tumors appeared, and was given daily for 7.5 weeks. At the end of the experiment the tumors were classified in groups according to their growth pattern: 1. Growing tumors (PD=progressive disease); 2. Non-growing, stabilized tumors (SD=stabilized disease, no change in tumor volume or regression less than 75%; 3. Regressing tumors (PR=partial response, regression of tumor volume more than 75%); 4. Disappeared tumors (CR=complete response, no palpable tumor).

[7] = system: uterine weight; conditions: feeding during pregnancy and lactation to rats; not evident at later stages; Tou et al. 1998; cited from earlier work
[8] = system: antiestrogen-sensitive DMBA-induced breast cancer; conditions: supplementation of a high-fat diet; flaxseed flour 5% or 10%; Serraino and Thompson; Thompson et al.; cited from earlier work
[9] = system: chemically induced aberrant crypts in rat colon; conditions: Serraino and Thompson 1992, Jenab and Thompson 1996; cited from earlier work
[10] = intact animals, 50 mg/kg HMR, four week exposure, mean

## O=C1OC[C@H](Cc2cccc(O)c2)[C@H]1[C@@H](O)c1cccc(O)c1 [7-hydroxyenterolactone]
[1]
  Inhibition of 3H-17β-estradiol formation from 3H-androstenedione (aromatization): no inhibitory effects

## COc1cc(CC2C(=O)OCC2C(O)c2ccc(O)c(OC)c2)ccc1O (stereo not shown) [HMR, hydroxymatairesinol]
[2]
  Estrogenic effect on the uterine weight gain: no significant estrogenic effect
[3]; 50 mg/kg HMR, four week exposure, mean
  Pituitary LH: 7.53 µg/pit
[3]; 4-week treatment
  Changes in testosterone or LH concentrations vs placebo: no significant changes
  Changes in the weights of accessory sex glands and testis vs placebo: no significant changes
[4]
  Estrogenic or antiestrogenic activity in MCF-7 cell proliferation: very weak, not statistically significant
[1]
  Inhibition of 3H-17β-estradiol formation from 3H-androstenedione (aromatization): no inhibitory effects
[5]; control (intact) animals, 4-week treatment
  Changes in the weights of accessory sex glands and testis vs placebo: no significant changes
[5]; [10]
  Pituitary LH: 6.84 µg/pit
  Serum LH: 1.09 ng/mL
  Serum testosterone: 2.77 ng/mL
[5]; intact animals, 4-week treatment
  Changes in testosterone or LH concentrations vs placebo: no significant changes
[6]; 3.0 vs 15.0 mg/kg
  Dose-dependency of antitumor action: no clear dose-dependency
[6]; HMR 3.0 and 15.0 mg/kg per os daily for 7.5 weeks, FIG. 4
  Antitumor effect (growing PD versus SD, PR, CR tumors): statistically very significant

## OCC(Cc1cccc(O)c1)C(CO)Cc1cccc(O)c1 (stereo not shown) [enterodiol, 2,3-bis-(3’-hydroxybenzyl)-butane-1,4-diol]
[1]
  Inhibition of 3H-17β-estradiol formation from 3H-androstenedione (aromatization): noninhibitory

## O=C1OCC(Cc2cccc(O)c2)C1Cc1cccc(O)c1 (stereo not shown) [enterolactone, 2,3-bis-(3’-hydroxybenzyl)-butyrolactone]
[1]
  Inhibition of 3H-17β-estradiol formation from 3H-androstenedione (aromatization): dose-dependent inhibition

## secoisolariciresinol-diglycoside [SDG]
[7]
  Uterine weight (estrogen-like activity): increased the uterine weight at weaning
[8]
  Development of DMBA-induced breast cancer: prevented the development
[9]
  Formation of chemically induced aberrant crypts: inhibited
